According to patent US20260174829A1, “METHODS OF REDUCING TYPE 2 CYTOKINE-MEDIATED INFLAMMATION USING NEUROMEDIN PEPTIDES” (Rutgers, The State University of New Jersey, priority 2018, published 2026):

B1: IL-4: cytokine known to promote ILC2 activation (protein, UniProt P05112 25-153, looked up)
Interleukin-4: HKCDITLQEIIKTLNSLTEQKTLCTELTVTDIFAASKNTTEKETFCRAATVLRQFYSHHEKDTRCLGATAQQFHRHKQLIRFLKRLDRNLWGLAGLNSCPVKEANQSTLENFLERLKTIMREKYSKCSS
B2: IL-33: cytokine known to promote ILC2 activation (protein, UniProt O95760 1-270, looked up)
Interleukin-33: MKPKMKYSTNKISTAKWKNTASKALCFKLGKSQQKAKEVCPMYFMKLRSGLMIKKEACYFRRETTKRPSLKTGRKHKRHLVLAACQQQSTVECFAFGISGVQKYTRALHDSSITGISPITEYLASLSTYNDQSITFALEDESYEIYVEDLKKDEKKDKVLLSYYESQHPSNESGDGVDGKMLMVTLSPTKDFWLHANNKEHSVELHKCEKPLPDQAFFVLHNMHSNCVSFECKTDPGVFIGVKDNHLALIKVDSSENLCTENILFKLSET
B3: IL-25: activating cytokine used in ILC2 cultures (protein, UniProt Q9H293 33-177, looked up)
Interleukin-25: YSHWPSCCPSKGQDTSEELLRWSTVPVPPLEPARPNRHPESCRASEDGPLNSRAISPWRYELDRDLNRLPQDLYHARCLCPHCVSLQTGSHMDPRGNSELLYHNQTVFYRRPCHGEKGTHKGYCLERRLYRVSLACVCVRPRVMG

Test system: TH2 cells
Assay: Anti-CD3/anti-CD28 stimulated lymph node cells (day 7 post-Nb), IL-5/IL-13 ELISA
Type: cell-based, mouse
Conditions: LN cells day 7 post-Nb, anti-CD3 and anti-CD28, 48 hours
Method: FIGS. 7A-7I. Nmb treatment is sufficient to suppress allergic airway inflammation. Mice challenged with papain were treated with PBS or Nmb (i.t.) and (A) Lung ILC2s, (B) IL-5+ and IL-13+ ILC2s, and (C) eosinophils were evaluated. […] Mesenteric lymph nodes (MLNs) were isolated on day 7 post-Nb and single cells suspensions were treated with anti-CD3 and anti-CD28 in the presence or absence of Nmb for 48 hours and (E), IL-5 and (F) IL-13 were quantified in cell-free supernatants by ELISA. (F-I), Modified versions of Nmb (see Table 2) were tested for their ability to alter IL-5 and IL-13 production from anti-CD3 and anti-CD28 MLN cells isolated on day 7 post-Nb. P values were determined by two-tailed Student's t-tests. Blue asterisks represent comparisons between media treated controls and native Nmb. Red asterisks represent comparisons between media treated controls and modified version of Nmb as described in Table 2. (*,p<0.05), (**,p<0.01), (***,p<0.001) or (F-I).
FIGS. 8A-8B. Mesenteric lymph nodes (MLNs) were isolated on day 7 post-Nb and single cells suspensions were treated with anti-CD3 and anti-CD28 in the presence or absence of native Nmb or modified versions of the peptide for 48 hours and (A), IL-5 and (B) IL-13 were quantified in cell-free supernatants by ELISA. P values were determined by two-tailed Student's t-tests. Blue asterisks represent comparisons between media treated controls and native Nmb. Red asterisks represent comparisons between media treated controls and modified version of Nmb as described in Table 2. (*,p<0.05), (**,p<0.01), (***,p<0.001).
At the time points evaluated post-Nb, the majority of the type 2 cytokines are ILC2-derived (14) and any effects Nmb is having on TH2 cell responses may be difficult to detect. To address this, lung-draining LNs were isolated on day 7 post-Nb and stimulated with anti-CD3 and -CD28 to activate T cells in both the presence of absence of recombinant Nmb. LN cells treated with anti-CD3 and -CD28 produced increased amounts of IL-5, and IL-13 (FIGS. 7D, 7E).
Thus, Nmb can be employed to reduce type 2 cytokine-mediated inflammation. Native Nmb is a 10-mer peptide (SEQ ID NO: 1) that operates via its ability to bind the Nmb receptor (15). This example describes the results of an alanine scan to systematically replace various residues of the Nmb with alanine (Table 2) and the resulting ability of the variant Nmb peptides to inhibit type 2 cytokine production by TH2 cells. Further, caps were added to the native form of Nmb (SEQ ID NO: 1) and its bioactivity monitored (FIG. 5A).

Row | Molecule | capacity to inhibit IL-13 production compared to native Nmb | capacity to inhibit IL-5 production compared to native Nmb
1 | Ac-GLLWATGHFM-amide (Ac-GLLWATGHFM-NH2) [J] | significantly greater capacity | 
2 | H2N-ANLWATGHFM-amide (H-ANLWATGHFM-NH2) | significantly greater capacity | 
3 | H2N-ATGHFM-amide (H-ATGHFM-NH2) [AI] | enhanced capacity | 
4 | H2N-GALWATGHFM-amide (H-GALWATGHFM-NH2) [B] | significantly greater capacity | 
5 | H2N-GLWATGHFM-amide (H-GLWATGHFM-NH2) [O] |  | reduced capacity
6 | H2N-GNAWATGHFM-amide (H-GNAWATGHFM-NH2) [C] | significantly greater capacity | significantly reduced capacity
7 | H2N-GNLAATGHFM-amide (H-GNLAATGHFM-NH2) | significantly greater capacity | 
8 | H2N-GNLWATAHFM-amide (H-GNLWATAHFM-NH2) | significantly reduced capacity | significantly reduced capacity
9 | H2N-GNLWATG-amide (H-GNLWATG-NH2) [AA] | enhanced capacity | significant enhanced capacity
10 | H2N-GNLWATGFM-amide (H-GNLWATGFM-NH2) [U] |  | reduced capacity
11 | H2N-GNLWATGH-amide (H-GNLWATGH-NH2) [X] | enhanced capacity | significant enhanced capacity
12 | H2N-GNLWATGHAM-amide (H-GNLWATGHAM-NH2) | significantly reduced capacity | 
13 | H2N-GNLWATGHF-amide (H-GNLWATGHF-NH2) |  | reduced capacity
14 | H2N-GNLWATGHFA-amide (H-GNLWATGHFA-NH2) | significantly greater capacity | 
15 | H2N-GNLWATGHFM-NHMe | significantly greater capacity | 
16 | H2N-GNLWATGHM-amide (H-GNLWATGHM-NH2) [V] | reduced capacity | reduced capacity
17 | H2N-GNLWATHFM-amide (H-GNLWATHFM-NH2) | enhanced capacity | 
18 | H2N-GNLWTGHFM-amide (H-GNLWTGHFM-NH2) [R] | enhanced capacity | reduced capacity
19 | H2N-GNWATGHFM-amide (H-GNWATGHFM-NH2) [P] |  | reduced capacity
20 | H2N-LWATGH-amide (H-LWATGH-NH2) [AG] | enhanced capacity | significant enhanced capacity
21 | H2N-LWATGHF-amide (H-LWATGHF-NH2) [AC] | enhanced capacity | 
22 | H2N-LWATGHFM-amide (H-LWATGHFM-NH2) [Z] | enhanced capacity | 
23 | H2N-NLWATGH-amide (H-NLWATGH-NH2) [AB] | enhanced capacity | 
24 | H2N-NLWATGHF-amide (H-NLWATGHF-NH2) [Y] | enhanced capacity | significant enhanced capacity
25 | H2N-NLWATGHFM-amide (H-NLWATGHFM-NH2) |  | reduced capacity
26 | H2N-WATGHF-amide (H-WATGHF-NH2) [AH] | enhanced capacity | significant enhanced capacity
27 | H2N-WATGHFM-amide (H-WATGHFM-NH2) [AD] | enhanced capacity | 
28 | Methanesulfonyl-GNLWATGHFM-amide [K] | significantly greater capacity | significantly reduced capacity

Test system: NMBR expression by ILC2s
Assay: NMBR expression by cultured lung ILC2s, flow cytometry
Type: cell-based, mouse
Conditions: ILC2s day 7 post-Nb, IL-2 and IL-7, overnight culture
Source text: FIG. 9. Basophils regulate NMBR expression. ILC2s were sort-purified from the lung of Nb-infected mice (day 7) and stimulated with survival cytokines (IL-7 and IL-2) and also with activated basophils, IL-4 or IL-33 overnight. NMBR expression was monitored by flow cytometric analysis post-culture. Data are presented as […] mean fluorescent intensity (GMFI). Statistical comparisons were done using a Student's t-test.
FIG. 14. Prostaglandin E2 upregulates expression of NMBR on lymphocytes. Lung ILC2s were sort-purified from the lungs of mice on day 7 post-Nb and cultured with a combination of survival cytokines (IL-2 and IL-7) and/or activating cytokines (IL-25 and IL-33). In addition, cultures were treated with NMB or prostaglandin E2 (PGE2) and the expression of NMBR was measured by flow cytometric analysis on day 4 post-culture. Statistical analysis was performed using a student's t-test. Negative NMBR staining as determined by an isotype control antibody is also shown (Isot).
NMBR expression by lung ILC2s was reduced when basophils are depleted following an Nb infection. To determine whether basophils directly mediate expression of NMBR or whether they operate through intermediate pathways, ILC2s were sort-purified from the lungs of Nb-infected mice (day 7) and cultured with the survival cytokines IL-2 and IL-7. Additionally, the ILC2s were cultured with activated basophils, IL-4, or IL-33 overnight. NMBR expression was subsequently monitored by flow cytometric analysis post-culture.
To better determine the mechanisms through which basophils regulate expression of NMBR on lymphocytes, ILC2s were cultured with a combination of survival and activating cytokines in the presence or absence of NMB or prostaglandin E2 (PGE2).

Row | Molecule | NMBR expression levels on ILC2s
29 | B1 | no changes
30 | B2 | no changes

Same assay, conditions: ILC2s day 7 post-Nb, survival and/or activating cytokines, day 4 post-culture

Row | Molecule | NMBR expression by ILC2s
31 | CCCCC[C@H](O)/C=C/[C@H]1[C@H](O)CC(=O)[C@@H]1C/C=C\CCCC(=O)O [PGE2, prostaglandin E2, reference compound] | significantly upregulated
32 | B3 | failed to upregulate
33 | B2 | failed to upregulate
